Starred links: 1 amine or outer side, 2 acyl side, 3 side chain; linkers in the order of their positions; H or OH if unused. Positions of bridges follow the written chain, without caps; N, C: chain ends. Non-standard residues stand in square brackets, D forms with d. Residues, ends and D or L forms follow the SMILES beside them. *: point of attachment. hTyr(3S-OH,4S-OH,3'-OSO3H) = N[C@H](C(=O)O)[C@H](O)[C@@H](O)c1ccc(O)c(OS(=O)(=O)O)c1; Orn(4R-OH,5R-OH) = O=C([C@H](C[C@@H](O)[C@@H](O)N[*:3])N[*:1])[*:2]; Pro(3S-OH,4S-Me) = C[C@H]1CN[C@H](C(=O)O)[C@H]1O; X1 = CCCCCOc1ccc(-c2cc(-c3ccc(C(=O)*)cc3)no2)cc1; Gln(3R-OH) = NC(=O)C[C@@H](O)[C@H](N)C(=O)O; Hyp = O=C(O)[C@@H]1C[C@@H](O)CN1
Experiments:
A. terreus = settings: some isolates; Baddley et al., J. Clin. Microbiol. 2009; cited from earlier work
Aspergillus fumigatus = test: Antifungal exposure modulates the release of VOCs in A. fumigatus in vitro (headspace GC-MS); assay type: cell-based; settings: for change in key A. fumigatus VOC features at 24 hours: compared to matched control samples
Method: For each experiment, 10^4 conidia were inoculated into 5 mL of microbial media (either nutrient Yeast Extract Peptone Dextrose (YPD) broth, nutrient poor Aspergillus minimal media (Pontecorvo et al., Advan Genet 1953; 5:141-238), or under iron-starved, alkaline stress, or nitrogen-depleted conditions (McDonagh et al., PLoS Pathog 2008; 4:e1000154)) in 20 mL glass vials with an airtight crimp top incorporating a rubber septum. Cultures were incubated for 24-144 hours at 200 rpm and 37° C. and headspace gas was dynamically adsorbed, using argon carrier gas and an air sampling pump calibrated to 20 mL/minute, onto Markes thermal desorption traps containing tandem beds of Tenax TA (200 mg), Carbograph 1 TD (100 mg), and Carboxen 1003 (100 mg), optimized to retain VOCs of diverse size and polarity.
Headspace VOCs were also collected after exposure of a subset of fungal isolates to the antifungal drugs voriconazole, liposomal amphotericin B, and micafungin, each at a concentration of […].
VOCs were desorbed onto a dual GC-MS/DMS system (FIG. 1)—the eluent from the gas chromatograph was split between the MS, to allow identification of each compound, and the DMS, an extremely sensitive and selective gas detector that can be easily used as a point-of-care gas detection device, to determine the mobility pattern for each compound. The NIST MS Search 2.0 Library was used to identify VOCs in the total ion chromatogram (TIC) of the GC-MS data. Differences in spectral features of DMS output were visually distinguished between the positive ion spectra of A. fumigatus and A. terreus and principal component analysis (PCA) was used to evaluate the degree of class discrimination between these fungal species using algorithms in MATLAB (Version R2012a).
Whether exposure to antifungal drugs might modulate VOC release in Aspergillus fumigatus was assessed in vitro.

[1] = added to 48-hour hyphal cultures, after 24 hours, 1.0 mg/mL

## C[C@@H]1[C@H](O)[C@@H](C)/C=C/C=C/C=C/C=C/C=C/C=C/C=C/[C@H](O[C@@H]2O[C@H](C)[C@@H](O)[C@H](N)[C@@H]2O)C[C@@H]2O[C@](O)(C[C@@H](O)C[C@@H](O)[C@H](O)CC[C@@H](O)C[C@@H](O)CC(=O)O[C@H]1C)C[C@H](O)[C@H]2C(=O)O [AMB, amphotericin B]
A. terreus
  susceptibility of A. terreus isolates: resistant

## CCCCCOc1ccc(-c2cc(-c3ccc(C(=O)N[C@H]4C[C@@H](O)[C@@H](O)NC(=O)[C@@H]5[C@@H](O)[C@@H](C)CN5C(=O)[C@H]([C@H](O)CC(N)=O)NC(=O)[C@H]([C@H](O)[C@@H](O)c5ccc(O)c(OS(=O)(=O)O)c5)NC(=O)[C@@H]5C[C@@H](O)CN5C(=O)[C@H]([C@@H](C)O)NC4=O)cc3)no2)cc1 [micafungin] (X1-[Orn(4R-OH,5R-OH)]T[Hyp][hTyr(3S-OH,4S-OH,3'-OSO3H)][Gln(3R-OH)][Pro(3S-OH,4S-Me)]; lactam 1-C)
Aspergillus fumigatus; added to 48-hour hyphal cultures, after 24 hours, compared to matched control samples without drug, 1.0 mg/mL
  increase in some of the key A. fumigatus VOC features: ≤ 17 fold
Aspergillus fumigatus; [1]
  change in key A. fumigatus VOC features at 24 hours: initial increase
Aspergillus fumigatus; longer duration of incubation and hyphal death
  key A. fumigatus VOC features with longer incubation: attenuation

## C[C@@H](c1ncncc1F)[C@](O)(Cn1cncn1)c1ccc(F)cc1F [voriconazole]
Aspergillus fumigatus; [1]
  change in key A. fumigatus VOC features at 24 hours: near-complete attenuation

— patent US10031125B2, “Diagnosis and treatment of invasive aspergillosis” (THE BRIGHAM AND WOMEN'S HOSPITAL, INC., priority 2012, dated 2018)
